These results are taken from patent US8575197B2, “Pyrolinone derivative and pharmaceutical composition comprising the same” (Shionogi & Co., Ltd., priority 2008, dated 2013).

What is called IC50 is the point on the concentration scale where inhibition reaches its midpoint.

This experiment addresses human P2X3 receptor (Homo sapiens (Human), UniProt P56373). Nature of the experiment: P2X3 receptor inhibition, ATP-evoked Fluo-3 calcium fluorescence (FDSS 3000). It counts as cell-based. The note with it: C6BU-1 cell transfected with human P2X3 receptor gene; ATP-evoked Fluo-3 fluorescence. The essentials: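 C6BU-1 cells stably transfected with human P2X3, loaded with 4 μM Fluo-3-AM for 1 h at 37 °C in HEPES buffer pH 7.5 with probenecid. Compound added 5 min before 40 nM ATP solution; fluorescence followed 3 min. IC50 from ratio of peak post-ATP to baseline fluorescence.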

Sequence of human P2X3 receptor (P56373 whole entry): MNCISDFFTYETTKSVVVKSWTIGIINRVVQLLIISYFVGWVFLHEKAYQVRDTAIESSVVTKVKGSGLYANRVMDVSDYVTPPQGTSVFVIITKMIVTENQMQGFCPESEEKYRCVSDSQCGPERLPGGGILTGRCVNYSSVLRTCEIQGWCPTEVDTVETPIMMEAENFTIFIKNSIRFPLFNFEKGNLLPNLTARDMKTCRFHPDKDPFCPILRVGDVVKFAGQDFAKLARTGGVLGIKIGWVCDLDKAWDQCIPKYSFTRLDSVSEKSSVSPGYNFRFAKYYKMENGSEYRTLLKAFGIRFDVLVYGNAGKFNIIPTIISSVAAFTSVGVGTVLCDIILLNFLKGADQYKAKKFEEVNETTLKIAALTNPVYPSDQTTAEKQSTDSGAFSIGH

Take `COc1ccccc1C1C(C(=O)C(C)C)=C(O)C(=O)N1c1ccc(-c2csnn2)cc1` (stereo not drawn) [Compound I-531]: the IC50 is 286 nM. Under `COCCOc1ncccc1[C@@H]1C(C(=O)C(C)C)=C(O)C(=O)N1c1ccc(-c2ccsc2)cc1` [Compound I-395] stands 6 nM; under `CC(C)(C)C(=O)C1=C(O)C(=O)N(c2ccc(-c3nccs3)cc2)C1c1ccccc1OCCO` (stereo not drawn) [Compound I-082], 650 nM. Turning to `CC(C)CC(=O)C1=C(O)C(=O)N(c2ccc(-c3ccsc3)cc2)C1c1ccccc1OCC(CO)CO` (stereo not drawn) [Compound I-498], the concentration for half-maximal inhibition (IC50) worked out at 8 nM. With `COc1ccccc1C1c2c(C(C)(C)CO)n[nH]c2C(=O)N1c1ccc(-c2nccs2)cc1` (stereo not drawn) [II-141], the IC50 turned out to be 22 nM. In the case of `CNC(=O)COc1ccccc1C1c2c(C(C)(C)C)n[nH]c2C(=O)N1c1ccc(-c2ccon2)cc1` (stereo not drawn) [II-077], the IC50 was found to be 237 nM. For the compound `COCCOc1ccccc1C1C(C(=O)C(C)C)=C(O)C(=O)N1c1ccc(-c2ccc(C)s2)cc1` (stereo not drawn) [Compound I-263], the IC50 amounted to 8 nM. Regarding `COCc1ccccc1[C@H]1C(C(=O)C(C)C)=C(O)C(=O)N1c1ccc(-c2ccsc2)cc1` [Compound I-254], the IC50 was 511 nM. In the case of `COCCOc1ncccc1[C@H]1C(C(=O)C(C)C)=C(O)C(=O)N1c1ccc(-c2ccsc2)cc1` [Compound I-433], the IC50 was found to be 425 nM.

For the compound `CC(C)c1n[nH]c2c1C(c1ccccc1N)N(c1ccc(-c3ccsc3)cc1)C2=O` (stereo not drawn) [II-081], the IC50 stood at 189 nM. On to `COc1ccccc1C1c2c(C(C)(C)C)n[nH]c2C(=O)N1c1ccc(-c2ccc(C)s2)cc1` (stereo not drawn) [II-275], for which the IC50 is 27 nM.

With `CC(C)CC(=O)C1=C(O)C(=O)N(c2ccc(-c3ccsc3)cc2)C1c1ccccc1OCCO` (stereo not drawn) [Compound I-250], the IC50 amounted to 29 nM.

As to `CC(C)C(=O)C1=C(O)C(=O)N(c2ccc(-c3ccsc3)cc2)C1c1cccnc1OCCCO` (stereo not drawn) [Compound I-564], the IC50 came to 18 nM. Regarding `COc1ccccc1C1C(C(=O)C(C)(C)C)=C(O)C(=O)N1c1ccc(-c2ccoc2)cc1` (stereo not drawn) [Compound I-077], the IC50 is 48 nM. Under `COCc1ccccc1C1C(C(=O)C(C)C)=C(O)C(=O)N1c1ccc(-c2ccc(C)s2)cc1` (stereo not drawn) [Compound I-266] stands 25 nM; under `Cc1cc(-c2ccc(N3C(=O)C(O)=C(C(=O)C(C)C)C3c3cccnc3OCCCO)cc2)cs1` (stereo not drawn) [Compound I-570], 70 nM. For the compound `CNC(=O)COc1ccccc1C1C(C(=O)C(C)(C)C)=C(O)C(=O)N1c1ccc(-c2ccsc2)cc1` (stereo not drawn) [Compound I-147], the IC50 turned out to be 17 nM. Take `COc1ncccc1C1C(C(=O)CC(C)C)=C(O)C(=O)N1c1ccc(-c2csc(C)c2)cc1` (stereo not drawn) [Compound I-371]: the IC50 came out at 447 nM. Under `CC(C)C(=O)C1=C(O)C(=O)N(c2ccc(-c3cccs3)cc2)C1c1ccccc1OCCO` (stereo not drawn) [Compound I-223] stands 12 nM; under `COc1ccccc1C1c2c(-c3ccco3)n[nH]c2C(=O)N1c1ccc(-c2ccsc2)cc1` (stereo not drawn) [II-178], 149 nM; under `COCOc1ccccc1C1C(C(=O)C(C)C)=C(O)C(=O)N1c1ccc(-c2ccoc2)cc1` (stereo not drawn) [Compound I-232], 24 nM.

Regarding `COCCOc1ncccc1C1C(C(=O)CC(C)(C)C)=C(O)C(=O)N1c1ccc(-c2ccsc2)cc1` (stereo not drawn) [Compound I-463], the IC50 amounted to 127 nM. Under `CC(C)c1n[nH]c2c1C(c1cccnc1OCC(=O)O)N(c1ccc(-c3ccsc3)cc1)C2=O` (stereo not drawn) [II-052] stands 33 nM; under `COc1ccccc1C1c2c(C(C)(C)C(=O)O)n[nH]c2C(=O)N1c1ccc(-c2ccsc2)cc1` (stereo not drawn) [II-165], 41 nM; under `COc1ccccc1C1c2c(C(C)(C)CO)n[nH]c2C(=O)N1c1ccc(N(C)C)cc1` (stereo not drawn) [II-011], 319 nM.

As for `COc1ccccc1C1c2c(C(C)(C)COC(C)=O)n[nH]c2C(=O)N1c1ccc(SC)cc1` (stereo not drawn) [II-010], the IC50 was found to be 134 nM. Under `CC(C)(C)C(=O)C1=C(O)C(=O)N(c2ccc(-c3ccsc3)cc2)C1c1ccccc1OCC(N)=O` (stereo not drawn) [Compound I-151] stands 8 nM.
